Test results from patent publication US20250025447A1, “TOLL-LIKE RECEPTOR AGONISTS AND ANTAGONISTS AND USES THEREOF” (Regents of the University of Minnesota, priority 2021, published 2025).
“Also recorded” adds a separate entry of the source. Where two headings read alike, the source gives them in different places. Blank lines part the entries; values can stand above or below the molecule they belong to.

Columns and labels:
[1] = target: T1, human TLR-7 (Homo sapiens, UniProt Q9NYK1); test: TLR-7/NF-κB/SEAP reporter assay in HEK293 cells, agonist mode
T1 sequence (Q9NYK1 27-1049): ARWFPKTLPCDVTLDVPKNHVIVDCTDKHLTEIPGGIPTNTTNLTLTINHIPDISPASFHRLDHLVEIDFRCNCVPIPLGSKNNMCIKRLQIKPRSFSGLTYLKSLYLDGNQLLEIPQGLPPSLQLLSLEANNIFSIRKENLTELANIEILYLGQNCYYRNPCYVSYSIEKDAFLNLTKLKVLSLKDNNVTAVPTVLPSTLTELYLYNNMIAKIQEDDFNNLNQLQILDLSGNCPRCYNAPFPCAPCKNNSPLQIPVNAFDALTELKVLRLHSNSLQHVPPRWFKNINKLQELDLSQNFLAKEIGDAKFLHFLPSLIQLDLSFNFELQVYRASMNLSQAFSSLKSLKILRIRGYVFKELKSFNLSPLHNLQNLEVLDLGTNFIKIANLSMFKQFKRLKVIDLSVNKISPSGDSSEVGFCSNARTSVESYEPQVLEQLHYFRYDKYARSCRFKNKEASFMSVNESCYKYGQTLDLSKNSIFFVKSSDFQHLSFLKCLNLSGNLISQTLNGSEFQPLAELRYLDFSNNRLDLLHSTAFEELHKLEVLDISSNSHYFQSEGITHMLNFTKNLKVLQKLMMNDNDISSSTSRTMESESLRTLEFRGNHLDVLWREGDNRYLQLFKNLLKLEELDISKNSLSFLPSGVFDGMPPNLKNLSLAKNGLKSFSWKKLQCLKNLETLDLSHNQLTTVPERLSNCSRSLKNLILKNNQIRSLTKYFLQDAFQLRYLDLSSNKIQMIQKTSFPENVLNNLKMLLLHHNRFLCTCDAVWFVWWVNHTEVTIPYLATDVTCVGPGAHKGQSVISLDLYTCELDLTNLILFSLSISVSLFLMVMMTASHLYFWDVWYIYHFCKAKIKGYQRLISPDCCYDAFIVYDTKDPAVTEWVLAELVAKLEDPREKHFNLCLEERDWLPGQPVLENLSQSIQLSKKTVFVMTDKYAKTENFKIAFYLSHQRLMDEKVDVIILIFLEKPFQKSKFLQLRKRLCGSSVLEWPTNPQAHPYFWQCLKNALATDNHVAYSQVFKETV

[2] = target: T2, human TLR-8 (Homo sapiens, UniProt Q9NR97); test: TLR-8 HEK-SEAP reporter competition (antagonist) assay against agonist compound 5; conditions: agonist compound 5 at different concentrations, FIGS. 1A-D
T2 sequence (Q9NR97 27-1041): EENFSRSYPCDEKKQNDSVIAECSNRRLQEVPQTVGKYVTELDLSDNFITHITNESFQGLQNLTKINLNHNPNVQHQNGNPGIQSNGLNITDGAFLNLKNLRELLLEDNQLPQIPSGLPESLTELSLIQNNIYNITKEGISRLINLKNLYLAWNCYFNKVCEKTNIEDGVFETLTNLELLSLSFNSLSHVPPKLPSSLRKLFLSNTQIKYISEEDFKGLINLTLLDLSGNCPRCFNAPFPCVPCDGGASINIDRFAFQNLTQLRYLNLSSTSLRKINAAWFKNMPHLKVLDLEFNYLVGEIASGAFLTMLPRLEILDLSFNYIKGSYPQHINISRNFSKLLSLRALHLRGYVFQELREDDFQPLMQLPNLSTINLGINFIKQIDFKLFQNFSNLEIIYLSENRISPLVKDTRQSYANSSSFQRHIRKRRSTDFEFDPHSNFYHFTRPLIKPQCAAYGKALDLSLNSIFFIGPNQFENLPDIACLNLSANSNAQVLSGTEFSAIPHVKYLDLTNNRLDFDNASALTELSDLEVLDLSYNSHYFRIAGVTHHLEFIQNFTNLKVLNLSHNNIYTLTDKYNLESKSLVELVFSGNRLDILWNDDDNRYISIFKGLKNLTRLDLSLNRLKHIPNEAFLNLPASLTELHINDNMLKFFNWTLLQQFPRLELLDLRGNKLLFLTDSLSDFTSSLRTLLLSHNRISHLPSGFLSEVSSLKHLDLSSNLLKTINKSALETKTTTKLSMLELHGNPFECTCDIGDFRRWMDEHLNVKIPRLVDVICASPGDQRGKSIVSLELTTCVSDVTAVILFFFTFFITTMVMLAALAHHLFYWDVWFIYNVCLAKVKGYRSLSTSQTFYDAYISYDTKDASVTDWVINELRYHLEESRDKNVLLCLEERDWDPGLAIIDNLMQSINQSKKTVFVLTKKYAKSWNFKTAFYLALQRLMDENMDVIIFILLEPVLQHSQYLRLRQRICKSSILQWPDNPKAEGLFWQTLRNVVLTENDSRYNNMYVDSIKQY

[3] = target: T2, human TLR-8; test: TLR-8/NF-κB/SEAP reporter assay in HEK293 cells, agonist mode; conditions: HEK-SEAP reporter cells
[4] = tested on: TNFα, IFNγ and IL-1β production in hPBMCs; test: Competition assay of agonist-induced cytokine induction in hPBMCs (ELISA); format: cell-based, human
Description: Preparation and stimulation of PBMC. Human PBMC can be isolated from heparinized blood by standard density-gradient centrifugation over Ficoll-Paque Plus (Pharmacia, Uppsala, Sweden). Briefly, peripheral blood can be drawn by venipuncture into green top heparin tubes. The blood can be diluted 1:1 with PBS, and then layered upon Ficoll-Paque Plus in 50 ml centrifuge tubes. The tubes can be spun at 2000 rpm for 20 min, after which the buffy coats can be collected and washed twice in PBS. The isolated PBMC can be counted and added to the wells of a 24-well plate (5×10^5 cells/1 ml/well) in RPMI 1640 supplemented with 10% FBS, penicillin, streptomycin, sodium pyruvate, nonessential amino acids, and HEPES. TLR agonist 5 and TLR antagonist 3 can be prepared in DMSO and added to the wells (in triplicate) to reach the desired final concentrations. Some wells may only contain DMSO. After 24 h, culture supernatants can be collected, aliquoted, and frozen at −80° C. until analysis.
Quantitation of IL-1p, IFNγ, and TNFα. The amount of cytokines present in the supernatants after stimulation can be determined via Enzyme-Linked Immunosorbent Assay (ELISA) using a BioLegend ELISA MAX Deluxe Set for each cytokine tested. The assays can be conducted following the protocols provided by the assay set. Cell culture supernatants from hPBMCs can be used directly without dilution for the determination of IFNγ and TNFα but can be diluted accordingly for the IL-1β so the observed cytokine level could fall into the linear range of the assay.
These cytokines can be of particular interest due to the role they play in the driving Th1 differentiation of immune cells and development of cellular immunity.

[5] = target: T1, human TLR-7; test: TLR-7 HEK-SEAP reporter competition (antagonist) assay against agonist compound 5; conditions: for TLR-7 antagonist activity against compound 5 (in words): agonist compound 5 at different concentrations, FIGS. 1A-D; for IC50: read-out: TLR-7 reporter cell activity, IC50 of antagonists, relative IC50 at fixed concentration of compound 5, 3 μM

- TLR-7 agonist activity (in words) ([1]; HEK-SEAP reporter cells): showed agonist activity
- EC50 ([1]; read-out: TLR-7 reporter cell activity, EC50, HEK-SEAP reporter cells, agonist): 29.4 ± 2.2 µM
- TLR-8 antagonist activity against compound 5 (in words) [2]: reduction of TLR-8 activity
SMILES: COC(=O)c1ccc2c(c1)nc(N)c1nc(CC(C)C)n(CC(C)O)c12 (stereo not drawn) [Compound 1, methyl 4-amino-1-(2-hydroxypropyl)-2-isobutyl-1H-imidazo[4,5-c]quinoline-7-carboxylate]

- EC50 [1]: 13.4 ± 1.5 µM
- TLR-7 agonist activity (in words) ([1]; HEK-SEAP reporter cells): showed agonist activity
- TLR-8 agonist activity (in words) [3]: showed agonist activity
- EC50 ([3]; read-out: TLR-8 reporter cell activity, EC50, agonist): 18.8 ± 3.4 µM
SMILES: COC(=O)c1ccc2c(c1)nc(N)c1nc(CC3CC3)n(CC(C)O)c12 (stereo not drawn) [Compound 2, methyl 4-amino-2-(cyclopropylmethyl)-1-(2-hydroxypropyl)-1H-imidazo[4,5-c]quinoline-7-carboxylate]

- IC50 [5]: 3.91 ± 0.15 µM
SMILES: COC(=O)c1ccc2c(c1)nc(N)c1nc(CC(C)C)n(Cc3ccc(CN)cc3)c12 [Compound 3, methyl 4-amino-1-(4-(aminomethyl)benzyl)-2-isobutyl-1H-imidazo[4,5-c]quinoline-7-carboxylate]
- inhibition of TNFα production ([4]; agonist 5 induced, FIG. 4A): concentration-dependent reduction; also recorded: potent inhibitor
- inhibition of IFNγ production ([4]; agonist 5 induced, FIG. 4B): concentration-dependent reduction; also recorded: potent inhibitor
- inhibition of IL-1β production ([4]; agonist 5 induced, FIG. 4C): concentration-dependent reduction; also recorded: potent inhibitor
- stimulatory activity in hPBMCs ([4]; compound itself): devoid of stimulatory activity
- TLR-7 antagonist activity against compound 5 (in words) [5]: concentration-dependent shifts; also recorded: low μM antagonists

- IC50 [5]: 4.1 ± 0.2 µM
SMILES: COC(=O)c1ccc2c(c1)nc(N)c1nc(CC3CC3)n(Cc3ccc(CN)cc3)c12 [Compound 4, methyl 4-amino-1-(4-(aminomethyl)benzyl)-2-(cyclopropylmethyl)-1H-imidazo[4,5-c]quinoline-7-carboxylate]
- TLR-7 antagonist activity against compound 5 (in words) [5]: concentration-dependent shifts; also recorded: low μM antagonists
